According to patent US11612634B2 (priority 2020, dated 2023):

System: morphine analgesic tolerance, BCP rat model
Assay: Effect on morphine analgesic tolerance in BCP rat model
Type: in vivo
Experimental: The successfully-established BCP model rats were divided into 4 groups randomly on the 22nd day after modeling, where the group A was injected with 0.2 μg/kg of the short peptide P10581; the group B was injected with 0.2 μg/kg of the short peptide P10581, and injected with 5 mg/kg of the morphine 30 min later; the group C was injected with 0.4 μg/kg of the short peptide P10581; and the group D was injected with 0.4 μg/kg of the short peptide P10581, and injected with 5 mg/kg of the morphine 30 min later. 1 h later, the PWT of the right hind paw of each group was recorded. Each of the rats was measured 3-5 times with an interval of 5-10 min, and the PWTs were averaged to taken as the practical PWT (unit: g). The drug administration was performed twice a day (at 9:30 a.m. and 4:30 p.m.) for consecutive 4 days, and the PWT of each group before and after the administration in the morning was measured.
ΔPWT (%) in FIG. 15D was calculated as follows: ΔPWT(%)=100*{[PWT(post-drug)−PWT(pre-drug)]/ΔPWT(Maxi)}(%): […]

WKCNPNDDKCCRPKLKC [P10581]
reversal of morphine analgesic tolerance for BCP (0.2 μg/kg peptide S.C. before 5 mg/kg morphine, twice a day, 4 days): 73.9%
restoration of analgesic effect of morphine on BCP (0.4 μg/kg peptide S.C. before 5 mg/kg morphine, repeated): completely restored
dose at which morphine analgesic tolerance is effectively eliminated (BCP, rats): ≥ 0.20 µg/kg
